Assay results taken from paper PMC6000956, “Immunomodulatory activities of pixatimod: emerging nonclinical and clinical data, and its potential utility in combination with PD-1 inhibitors” (Journal for Immunotherapy of Cancer, 2018).

Tests used:
[1] = Toxicokinetics in the 1 month IV toxicology study in beagle dogs; type: in vivo; details: dog, plasma
Experimental: (§1) A 1 month toxicology study of pixatimod in beagle dogs was performed under OECD Good Laboratory Practice (GLP) to assess the toxicity and toxicokinetic profile of pixatimod with 5 intravenous, short term (approximately 1 h) infusions at three defined dose levels of 2.5, 7.5 and 20 mg/kg weekly over 29 days. Blood samples were collected for toxicokinetic investigation to provide information on the systemic exposure. Parameters monitored included mortality and morbidity, clinical signs, food consumption, body weight and body temperature, ophthalmoscopy and electrocardiographic measurements. Laboratory investigations were performed using haematology (ADVIA 120), coagulation (AMAX Density Plus Coagulometer), clinical chemistry (VITROS 950) and urinalysis (URYXXON 300). At the end of the treatment, all animals were euthanized and subjected to a complete necropsy with selected organs weighed and followed by a detailed histopathology evaluation. Bone marrow smears from the femur and sternum were prepared at necropsy, fixed and stained with May-Grünwald and Giemsa stain for analysis. Blood samples obtained during the Phase Ia monotherapy study (PG545102) were collected weekly and the parameters reported herein were analysed by local hospital laboratories.
(§2) Plasma samples were analysed using a LC-MS/MS method as previously described. Pharmacokinetic parameters in animal studies were determined by non-compartmental analyses (NCA) of the mean plasma pixatimod concentration vs time profiles for each dose using the linear trapezoidal method in WinNonlin 5.2.1. For comparison with previous animal studies, exposure data (AUC0-last) in clinical samples were derived using individual subject NCA type exposure parameters from the original plasma concentration data using R (64-bit) Version 3.0.1.

[2] = Plasma exposure in the Phase Ia monotherapy study (PG545102), IV infusion; type: in vivo; details: human
Experimental: as §1, §2

beagle dogs [3] = assay: 1 month GLP toxicology study, weekly IV infusion; type: in vivo
Experimental: as §1
In the 4T1.2 model, the percentage tumor growth inhibition was determined according to the following formula: 100 × (1-ΔT/ ΔC) where ΔC and ΔT were calculated by subtracting the mean tumor volume in each group on day 1 of treatment from the mean tumor volume on the day of analysis. Statistical analysis was performed using GraphPad Prism, v 6.0 (GraphPad, La Jolla, CA). An ANOVA analysis was performed followed by Dunnett’s post hoc test to compare the tumor growth in the treated groups to the vehicle control. In the dog toxicology study, the analysis was performed using non-parametric Kruskal-Wallis test. The frequency of clinical observations, and necropsy and histopathology findings, was calculated as applicable. For all statistical analyses, statistically significance differences between control and treatment groups was signified by *P < 0.05, **P < 0.01, ***P < 0.001, ****P < 0.0001 versus vehicle control.

beagle dogs [4] = assay: Previous repeated weekly SC toxicology study in beagle dogs (organ weights); type: in vivo; details: weekly SC x5, 2.5, 7.5 and 20 mg/kg
Experimental: Supplementary file 40425_2018_363_MOESM2_ESM.pptx: Additional file 2: Effect of pixatimod dosing on selected organ weights in beagle dogs (IV and SC) and rats (SC). Repeated weekly IV exposure (× 5) of pixatimod increases the relative weights of liver (A) and kidney (B) but not thymus (C) nor spleen (D) in beagle dogs. […] Data shown is for combined sexes. […] Study size, n = 15 for control and 48 mg/kg groups and n = 10 for 3 and 12 mg/kg groups. […] Study size, n = 5 for control and 20 mg/kg groups and n = 3 for 2.5 and 7.5 mg/kg groups. *P < 0.05, **P < 0.01, ***P < 0.001 versus control (Kruskal-Wallis test for the dog study, ANOVA followed by Dunnett’s comparison for the rat study). (PPTX 65 kb)

advanced cancer patients = system: advanced cancer patients; set-up: method as in PMID 29531325; details: cited from earlier work
[5] = High Dose (20 mg/kg), 6 animals examined
[6] = Low Dose (2.5 mg/kg), 6 animals examined
[7] = Mid Dose (7.5 mg/kg), 6 animals examined

CC(C)CCC[C@@H](C)[C@H]1CC[C@H]2[C@@H]3CC[C@H]4C[C@@H](O[C@@H]5O[C@H](COS(=O)(=O)O)[C@@H](O[C@H]6O[C@H](COS(=O)(=O)O)[C@@H](O[C@H]7O[C@H](COS(=O)(=O)O)[C@@H](O[C@H]8O[C@H](COS(=O)(=O)O)[C@@H](OS(=O)(=O)O)[C@H](OS(=O)(=O)O)[C@H]8OS(=O)(=O)O)[C@H](OS(=O)(=O)O)[C@H]7OS(=O)(=O)O)[C@H](OS(=O)(=O)O)[C@H]6OS(=O)(=O)O)[C@H](OS(=O)(=O)O)[C@H]5OS(=O)(=O)O)CC[C@]4(C)[C@H]3CC[C@]12C [pixatimod]
AUC(0-t) ([1]; 2.5 mg/kg, 2.5 mg/kg weekly IV (HED 83 mg), read-out: AUC0-last Week 1): 697 µg·h/mL | AUC(0-t) ([1]; 2.5 mg/kg, 2.5 mg/kg weekly IV (HED 83 mg), read-out: AUC0-last Week 4): 1370 µg·h/mL | AUC(0-t) ([1]; 7.5 mg/kg, 7.5 mg/kg weekly IV (HED 250 mg), read-out: AUC0-last Week 1): 1810 µg·h/mL | AUC(0-t) ([1]; 7.5 mg/kg, 7.5 mg/kg weekly IV (HED 250 mg), read-out: AUC0-last Week 4): 4940 µg·h/mL | AUC(0-t) ([1]; 20 mg/kg, 20 mg/kg weekly IV (HED 666 mg), read-out: AUC0-last Week 1): 6880 µg·h/mL | AUC(0-t) ([1]; 20 mg/kg, 20 mg/kg weekly IV (HED 666 mg), read-out: AUC0-last Week 4): 10500 µg·h/mL | AUC(0-t) ([2]; 25 mg, 25 mg weekly IV, read-out: AUC0-last Week 1): 465 µg·h/mL | AUC(0-t) ([2]; 25 mg, 25 mg weekly IV, read-out: AUC0-last Week 4): 610 µg·h/mL | AUC(0-t) ([2]; 50 mg, 50 mg weekly IV, read-out: AUC0-last Week 1): 709 µg·h/mL | AUC(0-t) ([2]; 50 mg, 50 mg weekly IV, read-out: AUC0-last Week 4): 1690 µg·h/mL | AUC(0-t) ([2]; 100 mg, 100 mg weekly IV, read-out: AUC0-last Week 1): 1210 µg·h/mL | AUC(0-t) ([2]; 100 mg, 100 mg weekly IV, read-out: AUC0-last Week 4): 2380 µg·h/mL | AUC(0-t) ([2]; 150 mg, 150 mg weekly IV, read-out: AUC0-last Week 1): 1440 µg·h/mL | AUC(0-t) ([2]; 150 mg, 150 mg weekly IV, read-out: AUC0-last Week 4): 2780 µg·h/mL | mortality (beagle dogs [3]; 2.5, 7.5 and 20 mg/kg weekly IV over 29 days): no mortality | Kidney: Cell infiltrate, mixed, perivascular, animals affected (beagle dogs [3]; [5]): 6 | Kidney: Cell infiltrate, mixed, perivascular, mild (beagle dogs [3]; [5]): 4 | Kidney: Cell infiltrate, mixed, perivascular, minimal (beagle dogs [3]; [5]): 1 | Kidney: Cell infiltrate, mixed, perivascular, moderate (beagle dogs [3]; [5]): 1 | Kidney: Dilatation tubular, animals affected (beagle dogs [3]; [5]): 6 | Kidney: Dilatation tubular, by grade (minimal or mild, not resolvable) (beagle dogs [3]; [5]): 6 | Kidney: Sclerosis glomerular, animals affected (beagle dogs [3]; [5]): 3 | Kidney: Sclerosis glomerular, mild (beagle dogs [3]; [5]): 1 | Kidney: Sclerosis glomerular, minimal (beagle dogs [3]; [5]): 2 | Kidney: Vacuolation glomerular, animals affected (beagle dogs [3]; [5]): 4 | Kidney: Vacuolation glomerular, mild (beagle dogs [3]; [5]): 4 | Liver: Cell infiltrate, mixed, diffuse, animals affected (beagle dogs [3]; [5]): 2 | Liver: Cell infiltrate, mixed, diffuse, mild (beagle dogs [3]; [5]): 2 | Liver: Cell infiltrate, mononuclear, multifocal, animals affected (beagle dogs [3]; [5]): 0 | Liver: Hypertrophy hepatocellular, animals affected (beagle dogs [3]; [5]): 6 | Liver: Hypertrophy hepatocellular, mild (beagle dogs [3]; [5]): 5 | Liver: Hypertrophy hepatocellular, minimal (beagle dogs [3]; [5]): 1 | Liver: Hypertrophy, Kupffer cells, animals affected (beagle dogs [3]; [5]): 6 | Liver: Hypertrophy, Kupffer cells, mild (beagle dogs [3]; [5]): 4 | Liver: Hypertrophy, Kupffer cells, minimal (beagle dogs [3]; [5]): 2 | Spleen: Cell infiltrate, mixed cellular, diffuse (minimal), animals affected (beagle dogs [3]; [5]): 4 | Thymus: Lymphoid atrophy, animals affected (beagle dogs [3]; [5]): 2 | Thymus: Lymphoid atrophy, mild (beagle dogs [3]; [5]): 1 | Thymus: Lymphoid atrophy, minimal (beagle dogs [3]; [5]): 1 | Kidney: Cell infiltrate, mixed, perivascular, animals affected (beagle dogs [3]; [6]): 1 | Kidney: Cell infiltrate, mixed, perivascular, minimal (beagle dogs [3]; [6]): 1 | Kidney: Dilatation tubular, animals affected (beagle dogs [3]; [6]): 4 | Kidney: Dilatation tubular, minimal (beagle dogs [3]; [6]): 4 | Kidney: Sclerosis glomerular, animals affected (beagle dogs [3]; [6]): 0 | Kidney: Vacuolation glomerular, animals affected (beagle dogs [3]; [6]): 0 | Liver: Cell infiltrate, mixed, diffuse, animals affected (beagle dogs [3]; [6]): 0 | Liver: Cell infiltrate, mononuclear, multifocal, animals affected (beagle dogs [3]; [6]): 0 | Liver: Hypertrophy hepatocellular, animals affected (beagle dogs [3]; [6]): 5 | Liver: Hypertrophy hepatocellular, mild (beagle dogs [3]; [6]): 3 | Liver: Hypertrophy hepatocellular, minimal (beagle dogs [3]; [6]): 2 | Liver: Hypertrophy, Kupffer cells, animals affected (beagle dogs [3]; [6]): 2 | Liver: Hypertrophy, Kupffer cells, mild (beagle dogs [3]; [6]): 1 | Liver: Hypertrophy, Kupffer cells, minimal (beagle dogs [3]; [6]): 1 | Spleen: Cell infiltrate, mixed cellular, diffuse (minimal), animals affected (beagle dogs [3]; [6]): 0 | Kidney: Cell infiltrate, mixed, perivascular, animals affected (beagle dogs [3]; [7]): 5 | Kidney: Cell infiltrate, mixed, perivascular, mild (beagle dogs [3]; [7]): 1 | Kidney: Cell infiltrate, mixed, perivascular, minimal (beagle dogs [3]; [7]): 4 | Kidney: Dilatation tubular, animals affected (beagle dogs [3]; [7]): 6 | Kidney: Dilatation tubular, mild (beagle dogs [3]; [7]): 1 | Kidney: Dilatation tubular, minimal (beagle dogs [3]; [7]): 5 | Kidney: Sclerosis glomerular, animals affected (beagle dogs [3]; [7]): 0 | Kidney: Vacuolation glomerular, animals affected (beagle dogs [3]; [7]): 0 | Liver: Cell infiltrate, mixed, diffuse, animals affected (beagle dogs [3]; [7]): 0 | Liver: Cell infiltrate, mononuclear, multifocal, animals affected (beagle dogs [3]; [7]): 0 | Liver: Hypertrophy hepatocellular, animals affected (beagle dogs [3]; [7]): 6 | Liver: Hypertrophy hepatocellular, mild (beagle dogs [3]; [7]): 5 | Liver: Hypertrophy hepatocellular, minimal (beagle dogs [3]; [7]): 1 | Liver: Hypertrophy, Kupffer cells, animals affected (beagle dogs [3]; [7]): 6 | Liver: Hypertrophy, Kupffer cells, mild (beagle dogs [3]; [7]): 2 | Liver: Hypertrophy, Kupffer cells, minimal (beagle dogs [3]; [7]): 4 | Spleen: Cell infiltrate, mixed cellular, diffuse (minimal), animals affected (beagle dogs [3]; [7]): 2 | AST (beagle dogs [3]; after 5 weekly IV doses): significant changes | large unstained cells (LUCs) (beagle dogs [3]; blood, following exposure): significant increases | bone marrow smears (beagle dogs [3]; femur and sternum at necropsy): No treatment-related changes | body temperature (beagle dogs [3]; following the first dose, dissipated upon repeat dosing by day 30): significant elevations | absolute WBC counts and main subsets (lymphocytes, neutrophils and monocytes) (beagle dogs [3]; weekly IV dosing): remained within normal ranges | relative weight of kidneys (beagle dogs [3]; weekly IV x5): significantly increased | relative weight of liver (beagle dogs [3]; weekly IV x5): significantly increased | spleen weight (beagle dogs [3]; weekly IV x5): no effect | thymus weights (beagle dogs [3]; weekly IV x5): modest but dose-dependent decreases | spleen weight (beagle dogs [4]): no significant effect | dose up to which the compound was well tolerated (advanced cancer patients; IV infusion, monotherapy clinical trial): up to 100 mg | patients with treatment emergent adverse events possibly, likely, or certainly related to pixatimod (advanced cancer patients; Phase Ia monotherapy trial): 20 | estimated median duration of SD (advanced cancer patients): 57 days | patients with stable disease (SD) at 8 weeks by RECIST 1.1 (advanced cancer patients; of 16 patients with efficacy assessments): six | doses inducing flu-like symptoms in patients (advanced cancer patients; required prophylactic paracetamol): ≥ 50 mg | disease control rate at 8 weeks (advanced cancer patients; six of sixteen assessed): 38%
